Test results from US11136313B2, “Compounds, compositions, and methods for modulating CFTR” (Proteostasis Therapeutics, Inc., priority 2015, dated 2021).

Molecular target: T1, ΔF508-CFTR (Homo sapiens, UniProt P13569, DEL508-508)
T1 construct: Primary lung epithelial cells homozygous for the Cystic Fibrosis-causing ΔF508 mutation were differentiated for a minimum of 4 weeks; endogenous in cells; host or cells: primary lung epithelial cells (hBE) homozygous for ΔF508, differentiated at an air-liquid interface
Experiment: hBE equivalent current (Ieq) assay: AUC of equivalent chloride current after forskolin/VX-770 in primary lung epithelial cells homozygous for ΔF508
Type: cell-based
Settings: relative to CFTR amplifier (Compound A)+VX-809 (3 uM), compound at 10 uM and Compound A at 3 uM, 24 h treatment
Outline: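 Readout is the increase over vehicle in equivalent chloride current AUC from forskolin/VX-770 addition to bumetanide, measured by current clamp at 36 °C after benzamil block of ENaC. Cultures were homozygous ΔF508 primary lung epithelium grown ≥4 weeks at air-liquid interface and exposed basolaterally to compound for 24 h.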

T1 sequence (P13569 with tags, fused parts or gaps DEL508-508): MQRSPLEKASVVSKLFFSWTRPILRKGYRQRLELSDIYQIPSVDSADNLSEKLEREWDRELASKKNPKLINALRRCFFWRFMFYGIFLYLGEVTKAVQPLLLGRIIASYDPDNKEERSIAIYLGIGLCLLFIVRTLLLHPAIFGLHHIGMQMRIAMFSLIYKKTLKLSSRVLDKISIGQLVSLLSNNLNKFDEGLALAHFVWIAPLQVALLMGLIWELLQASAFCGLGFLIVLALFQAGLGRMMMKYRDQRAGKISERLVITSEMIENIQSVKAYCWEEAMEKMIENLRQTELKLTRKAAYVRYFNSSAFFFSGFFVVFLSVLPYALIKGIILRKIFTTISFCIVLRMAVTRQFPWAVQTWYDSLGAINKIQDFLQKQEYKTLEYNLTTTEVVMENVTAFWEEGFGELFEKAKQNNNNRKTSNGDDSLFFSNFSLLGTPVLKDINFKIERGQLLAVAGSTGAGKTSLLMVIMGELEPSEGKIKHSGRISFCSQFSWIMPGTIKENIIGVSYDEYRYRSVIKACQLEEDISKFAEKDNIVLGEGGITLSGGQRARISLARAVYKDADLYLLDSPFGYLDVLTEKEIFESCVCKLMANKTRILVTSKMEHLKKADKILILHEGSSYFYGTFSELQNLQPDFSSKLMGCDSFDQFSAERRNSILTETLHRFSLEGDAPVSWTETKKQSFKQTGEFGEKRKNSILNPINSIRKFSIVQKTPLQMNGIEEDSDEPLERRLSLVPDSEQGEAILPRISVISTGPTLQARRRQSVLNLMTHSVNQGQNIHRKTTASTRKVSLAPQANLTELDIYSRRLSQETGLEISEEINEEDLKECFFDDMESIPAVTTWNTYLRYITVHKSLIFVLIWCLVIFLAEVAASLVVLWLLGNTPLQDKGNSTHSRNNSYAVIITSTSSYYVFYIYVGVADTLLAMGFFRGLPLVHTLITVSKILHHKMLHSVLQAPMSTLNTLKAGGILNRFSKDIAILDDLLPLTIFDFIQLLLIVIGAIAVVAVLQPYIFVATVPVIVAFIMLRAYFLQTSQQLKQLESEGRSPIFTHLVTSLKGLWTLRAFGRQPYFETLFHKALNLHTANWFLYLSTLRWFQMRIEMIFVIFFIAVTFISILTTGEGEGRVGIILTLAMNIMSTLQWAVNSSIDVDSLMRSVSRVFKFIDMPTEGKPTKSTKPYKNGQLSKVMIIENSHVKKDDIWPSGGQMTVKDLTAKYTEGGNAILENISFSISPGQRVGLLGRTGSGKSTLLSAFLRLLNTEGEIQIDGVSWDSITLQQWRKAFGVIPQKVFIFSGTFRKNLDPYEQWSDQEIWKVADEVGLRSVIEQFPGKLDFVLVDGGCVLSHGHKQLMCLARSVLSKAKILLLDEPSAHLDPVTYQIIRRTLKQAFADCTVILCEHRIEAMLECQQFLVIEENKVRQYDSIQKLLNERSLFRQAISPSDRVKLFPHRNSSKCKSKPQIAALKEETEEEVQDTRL

Row | SMILES | Activity
1 | Cc1c(-c2cc(-c3noc(O)n3)c3c(OC(C)c4ccccc4)ccc(C)c3n2)oc2ccccc12 (stereo not shown) [Compound 361] | ++ (activity>50% of CFTR amplifier+VX-809 (3 uM) with compound at 10 uM and Compound A at 3 uM)
2 | Cc1c(-c2cc(-c3cc(O)[nH]n3)c3c(OC(C)c4ccccc4)ccc(C)c3n2)oc2ccccc12 (stereo not shown) [Compound 362] | + (activity<50% of an CFTR amplifier (Compound A)+VX-809 (3 uM) with compound at 10 uM and Compound A at 3 uM)
3 | Cc1c(-c2cc(C(=O)[O-])c3c(OCC4CCC5(CC4)COC5)ccc(C)c3n2)oc2ccccc12.[Na+] [Compound 367] | ++ (activity>50% of CFTR amplifier+VX-809 (3 uM) with compound at 10 uM and Compound A at 3 uM)
4 | Cc1c(-c2cc(C(=O)[O-])c3c(OC4CC(C)(C)C4)ccc(C)c3n2)oc2ccccc12.[Na+] [Compound 368] | ++ (activity>50% of CFTR amplifier+VX-809 (3 uM) with compound at 10 uM and Compound A at 3 uM)
5 | Cc1c(-c2cc(C(=O)[O-])c3c(OC4CC5(COC5)C4)ccc(C)c3n2)oc2ccccc12.[Na+] [Compound 369] | ++ (activity>50% of CFTR amplifier+VX-809 (3 uM) with compound at 10 uM and Compound A at 3 uM)
6 | Cc1c(-c2cc(C(=O)[O-])c3c(OC4CC5(COC5)C4)ccc(C)c3n2)sc2ccccc12.[Na+] [Compound 370] | ++ (activity>50% of CFTR amplifier+VX-809 (3 uM) with compound at 10 uM and Compound A at 3 uM)
7 | Cc1c(-c2cc(C(=O)[O-])c3c(OC(C)c4ccc(C5COC5)cc4)ccc(C)c3n2)oc2ccccc12.[Na+] (stereo not shown) [Compound 372] | ++ (activity>50% of CFTR amplifier+VX-809 (3 uM) with compound at 10 uM and Compound A at 3 uM)
8 | Cc1c(-c2cc(C(=O)[O-])c3c(OC(C)c4ccc(C5COC5)cc4)ccc(C)c3n2)sc2ccccc12.[Na+] (stereo not shown) [Compound 373] | ++ (activity>50% of CFTR amplifier+VX-809 (3 uM) with compound at 10 uM and Compound A at 3 uM)
9 | Cc1c(-c2cc(C(=O)[O-])c3c(OC[C@H]4C[C@@](C)(O)C4)ccc(C)c3n2)oc2ccccc12.[Na+] [Compound 374] | ++ (activity>50% of CFTR amplifier+VX-809 (3 uM) with compound at 10 uM and Compound A at 3 uM)
10 | Cc1c(-c2cc(C(=O)[O-])c3c(OC[C@H]4C[C@](C)(O)C4)ccc(C)c3n2)oc2ccccc12.[Na+] [Compound 375] | ++ (activity>50% of CFTR amplifier+VX-809 (3 uM) with compound at 10 uM and Compound A at 3 uM)
11 | Cc1c(-c2cc(C(=O)[O-])c3c(OC[C@H]4CC[C@@](C)(O)CC4)ccc(C)c3n2)oc2ccccc12.[Na+] [Compound 376] | ++ (activity>50% of CFTR amplifier+VX-809 (3 uM) with compound at 10 uM and Compound A at 3 uM)
12 | Cc1c(-c2cc(C(=O)[O-])c3c(OC[C@H]4CC[C@](C)(O)CC4)ccc(C)c3n2)oc2ccccc12.[Na+] [Compound 377] | ++ (activity>50% of CFTR amplifier+VX-809 (3 uM) with compound at 10 uM and Compound A at 3 uM)
13 | Cc1c(-c2cc(C(=O)[O-])c3c(OCC4CCC5(CC4)COC5)ccc(C)c3n2)sc2ccccc12.[Na+] [Compound 384] | ++ (activity>50% of CFTR amplifier+VX-809 (3 uM) with compound at 10 uM and Compound A at 3 uM)
14 | CO[C@]1(C)CC[C@H](COc2ccc(C)c3nc(-c4oc5ccccc5c4C)cc(C(=O)[O-])c23)CC1.[Na+] [Compound 387] | ++ (activity>50% of CFTR amplifier+VX-809 (3 uM) with compound at 10 uM and Compound A at 3 uM)
15 | CO[C@]1(C)CC[C@@H](COc2ccc(C)c3nc(-c4oc5ccccc5c4C)cc(C(=O)[O-])c23)CC1.[Na+] [Compound 388] | ++ (activity>50% of CFTR amplifier+VX-809 (3 uM) with compound at 10 uM and Compound A at 3 uM)
16 | Cc1ccc(OC(C)c2ccccc2)c2c(C(=O)[O-])cc(-c3nc4ccccc4n3C)nc12.[Na+] (stereo not shown) [Compound 407] | + (activity<50% of an CFTR amplifier (Compound A)+VX-809 (3 uM) with compound at 10 uM and Compound A at 3 uM)
